The results in this text go back to patent US20220220041A1, “USE OF UREA AS AN ANTIMICROBIAL ADDITIVE IN AN AQUEOUS SUSPENSION” (Omya International AG, priority 2019, published 2022).

Series [1] relates to Pseudomonas putida. The series can be described thus: Example 2 preservation efficacy: H60 slurry with 61 wt.-% urea solution, P. putida inoculum, TVC. Format: cell-based. Particulars: 30° C. The procedure:
(§1) All quoted bacterial counts (Total viable counts (TVC) values), unless otherwise indicated, are given in cfu/ml and determined after at least 2 days following plate-out and incubation at 30° C. and in accordance with the counting method described in “Bestimmung von aerobe mesophilen Keimen”, Schweizerisches Lebensmittelbuch, chapter 56, section 7.01, edition of 1985, revised version of 1988.
(§2) Unless otherwise stated, per tryptic soy agar plate (TSA, prepared using BD 236950) 0.1 ml of a solution or suspension is plated. Counts from 10000 cfu/ml to 99999 cfu/ml are reported as >1E4 cfu/ml. Counts from 100000 cfu/ml to 999999 cfu/ml are reported as >1E5 cfu/ml. Counts above 1000000 cfu/ml are reported as >1E6 cfu/ml.
(§3) For the preparation of inoculum with a single bacterial species (for example Escherichia coli (DSMZ 46295) or Pseudomonas putida), bacteria are spread onto Tryptic soy broth agar (BD, 236950) by dilution streaking followed by incubation at 30° C. for at least 24 h until colonies appear. Overnight cultures are generated by inoculation of 3 ml Tryptic soy broth (Fluka 22092) with a single colony followed incubation with agitation at […] at 30° C. for 24 h.
50 g sterile slurry H60 with a solid content of 76.5 wt.-%, based on the total weight of the H60 slurry is supplemented with different amounts of 61 wt.-% urea solution or water. The samples are then inoculated with 1 ml non-sterile calcium carbonate slurry (H60), 1 ml non-sterile calcium carbonate slurry (H90), 0.02 ml overnight culture of Escherichia coli (DSMZ 46295) and 0.02 ml overnight culture of Pseudomonas putida. The control samples are not inoculated. Samples are incubated at 30° C. and the TVC and pH are determined at various time points (0 day, 1 day, 4, days, 8 days, 9 days and/or 13 days).

Series [2] deals with Pseudomonas putida. The series can be described thus: Example 3 preservation efficacy: H60 slurry with industrial grade urea solution, P. putida inoculum, TVC. Format: cell-based. Particulars: industrial grade urea 5.5%, calcium carbonate 69%, water 25.5% w/w, 30° C. The procedure:
as §1, §2, §3
50 g sterile calcium carbonate slurry (H60) with a solid content of 77.3 wt.-%, based on the total weight of the H60 slurry is supplemented with industrial grade 50% (w/w) urea solution (Yara Canda Inc.) or water to different final concentrations. The industrial grade contained natural resident (i.e. bacteria in a non-growing state) bacteria. The bacterial of the industrial urea burden is 5 cfu/3 ml as determined by TVC. The species are identified by characterizing the grown colonies from the TVC by 16 S RNA sequencing, known to the person skilled in the art.
The samples are further artificially inoculated with 1 ml non-sterile calcium carbonate slurry (H60), 1 ml non-sterile calcium carbonate slurry (H90), 0.02 ml overnight culture of Escherichia coli (DSMZ 46295) and 0.02 ml overnight culture Pseudomonas putida. The control sample are not inoculated. […]

Series [3] in a line: Example 5: addition of dry urea to H60 slurry, viscosity and stability of the product. Format: physicochemical. Particulars: 2.68 wt.-% urea and 73 wt.-% calcium carbonate. As to the method: The Brookfield viscosity is measured by a Brookfield DV-III Ultra viscometer at 20° C.±3° C. at 100 rpm using an LV-3 spindle and is specified in mPa·s. Once the spindle has been inserted into the sample, the measurement is started with a constant rotating speed of 100 rpm.
1 kg calcium carbonate slurry (H60) with a solid content of 75 wt.-%, based on the total weight of the H60 slurry is stirred at approximately 500 rotations per minute (rpm) and 27.5 g dry urea is added slowly during agitation, leading to 2.68 wt.-% urea and 73 wt.-% calcium carbonate, based on the total weight of the obtained slurry. The blend is further mixed for 30 minutes at slow speed (<500 rpm).

[4] abbreviates: Table 2, urea 2.75%, calcium carbonate 73.1%, water 24.15% w/w.
[5] abbreviates: Table 2, urea 7.6%, calcium carbonate 67.1%, water 25.3% w/w.
Setting [6] is: Table 3, urea 0.65%, calcium carbonate 75.7%, water 23.65% w/w.
The mark [7] stands for this setting: Table 3, urea 2.75%, calcium carbonate 73.1%, water 24.15% w/w.

As to `NC(N)=O` [urea], in the series on Pseudomonas putida [1] (setting [4]), the “TVC cfu/ml Day 1” value is on record as under 100 cfu/ml, the “TVC cfu/ml Day 4” value is recorded as under 100 cfu/ml, the “TVC cfu/ml Day 8” value is reported as 100 cfu/ml and the “TVC cfu/ml Day 13” value is under 100 cfu/ml. Besides, in the series with Pseudomonas putida [1] (setting [5]), the “TVC cfu/ml Day 1” value was under 100 cfu/ml, the “TVC cfu/ml Day 4” value is recorded as under 100 cfu/ml, the “TVC cfu/ml Day 8” value is recorded as under 100 cfu/ml and the “TVC cfu/ml Day 13” value was under 100 cfu/ml. In addition, in the series on Pseudomonas putida [1] (setting [6]), the “TVC cfu/ml Day 1” value was over 1E5 cfu/ml and the “TVC cfu/ml Day 4” value was over 1E5 cfu/ml. Moreover, in the series on Pseudomonas putida [1] (setting [7]), the “TVC cfu/ml Day 1” value was under 100 cfu/ml, the “TVC cfu/ml Day 4” value is on record as under 100 cfu/ml and the “TVC cfu/ml Day 9” value is on record as under 100 cfu/ml. For the same molecule, in the series on Pseudomonas putida [2], the “TVC cfu/ml Day 1” value is recorded as under 100 cfu/ml, the “TVC cfu/ml Day 4” value was under 100 cfu/ml, the “TVC cfu/ml Day 8” value was under 100 cfu/ml and the “TVC cfu/ml Day 11” value is reported as under 100 cfu/ml. Also, in the series on Pseudomonas putida [2], the “TVC cfu/ml Day 13” value is under 100 cfu/ml. For the same molecule, in series [3], the “formation of clumps after addition of dry urea” value is listed as “No clumps were formed” and the “viscosity after addition of dry urea” value is recorded as “does not increase”. In addition, the “stability of the product” value in series [3] (7 days at room temperature and 40° C.) is recorded as “remains stable”.
